The target of data set [1] is binding of FLAG-STAT3 to HA-STAT3 (Mus musculus, UniProt P42227). Nature of the data set: co-immunoprecipitation of FLAG-STAT3 with HA-STAT3 in HEK293 cells. The class given is cell-based, human. As to conditions: HEK293 cells co-expressing FLAG- and HA-STAT3; treated 4 h. The method, then:
HEK-293/FLAG-STAT3/HA-STAT3 cells were treated for 4 h with vehicle, S3I-1757, S3I-1756, Ac-G{pTYR}LPQTV-[…]-NH2 (SEQ ID NO:3) or Ac-GYLPQTV-[…]-NH2 (SEQ ID NO:4) and then lysed in 20 mM Tris-HCl (pH 7.4), 5 mM EDTA, 10 mM Na4P2O7, 100 mM NaF, 2 mM Na3VO4, 1% NP-40.1 mM PMSF and 10 mg/ml aprotinin. For EGF stimulation group, HEK-293/FLAG-STAT3/HASTAT3 cells were treated by 100 ng/ml EGF for 30 minutes before making cell lysate. Protein A or G agarose (EMD Millipore, Billerica, Mass., USA) was washed twice with PBS and restore to 50% slurry with PBS. 500 μg of lysate were pre-cleared by mixture of protein A and protein G-agarose for 1 h at 4° C. and then remove protein A and G-agarose by centrifuge at 1300 rpm for 3 minutes. And then 500 μg of lysate was immunoprecipitated with 50 ng of HA antibody overnight at 4° C. on shaker and then capture the immunocomplex by adding 100 μl Protein A and G agarose/sepharose bead slurry for 1 hour at 4° C. Samples were washed five times with lysis buffer and then boiled in 5×SDS-PAGE sample buffer and run on SDS-PAGE gel. Protein was transferred to nitrocellulose membrane and then blotted as described above for HA, FLAG, pSTAT3, EGFR, and STAT3.
However, the FP assay only measured the ability of S3I-1757 to displace the 7 amino acid fluorescein-labelled GpYLPQTV phosphotyrosine peptide from the SH2 domain of STAT3 protein in vitro. Therefore, it was determined if the intracellular reciprocal binding of 2 full-length STAT3 proteins is inhibited. To this end, an assay was developed to measure directly STAT3-STAT3 dimerization in intact cells by cloning HA-tagged STAT3 and FLAG-tagged STAT3, generating HEK293 cells that stably co-express HA-STAT3 and FLAG-STAT3 and using these cells for coimmunoprecipitation and co-localization. […] This assay was validated by treating the FLAG-STAT3/HA-STAT3 HEK293 cells with tyrosine phosphorylated or nonphosphorylated GYLPQTV peptide fused to a membrane-translocating sequence (MTS) to allow cell uptake. […]

Data set [2] concerns P-STAT3 in the nucleus of MDA-MB-468 cells. Description: P-STAT3 nuclear accumulation by immunofluorescence. The format is cell-based, human. The following applies: 18 hours, various concentrations.
Method: MDA-MB-468 cells were plated at 4000 cells/well in 8-chamber slide. […] Cells were fixed, washed, and permeabilized as describe above. Specimens were then blocked in 1% bovine serum albumin (BSA) for 30 min and incubated with anti-pSTAT3 (Cell Signaling), antibody at 1:50 dilution at 4° C. overnight. Subsequently, cells were rinsed 4-5 times in PBS, incubated with Alexa Fluor secondary antibody for 1 hour at room temperature in the dark. Specimens were then washed 5 times with PBS, covered with cover slides with [sequence] mounting medium containing DAPI (Vector Lab, Inc., Burlingame, Calif.), and examined immediately under Zeiss Upright Fluorescence Microscope (Zeiss, Thornwood, N.Y., USA).
For data set [3], the system named is STAT3-DNA binding activity in MDA-MB-468 and A-549 cells. Nature of the data set: STAT3-DNA binding filter plate assay on nuclear extracts. The class given is cell-based, human. The following applies: 1, 2 or 4 hours. As for the experimental part: Nuclear extract preparation was carried out as described in Yu, et al., Science 1995; 269(5220):81-83. The STAT3-DNA binding filter plate assay was performed following the manual of the filter plate assay kit (Signosis, Sunnyvale, Calif.), as described for NFkB (Ying, et al., Blood 2011; 117(4):1301-1307). The TF Binding buffer was mixed with the STAT3 probe (biotin labeled STAT3 DNA binding sequence) and nuclear extract and incubated at 16° C. for 30 minutes to form the STAT3-DNA complex. The STAT3-DNA complex was then separated from free probe by using a filter plate. After several steps of binding and washing, bound STAT3 probe is retained on the filter in the corresponding well of Filer Plate and the free DNA probe is removed. The bound pre-labeled STAT3 probe was then eluted from the filter plate by centrifuge with elution buffer. Eluted probes were then hybridized into 96-well Hybridization Plate for quantitative analysis. The captured STAT3 probe was further detected by conjugation with streptavidin-HRP. The chemiluminescence of each well was detected by 2104 EnVisionR Multilabel Reader of PerkinElmer (Pekin Elmer, Waltham, Mass., USA) within 5 minutes after mixture with substrates. […]

Data set [4] deals with human breast and liver cancer xenografts. The following applies: human breast and liver cancer xenografts in mouse models; cited from earlier work.

[ ]: non-standard residue; d: D form. pY = N[C@@H](Cc1ccc(OP(=O)(O)O)cc1)C(=O)O

Chain of binding of FLAG-STAT3 to HA-STAT3 (P42227 whole entry): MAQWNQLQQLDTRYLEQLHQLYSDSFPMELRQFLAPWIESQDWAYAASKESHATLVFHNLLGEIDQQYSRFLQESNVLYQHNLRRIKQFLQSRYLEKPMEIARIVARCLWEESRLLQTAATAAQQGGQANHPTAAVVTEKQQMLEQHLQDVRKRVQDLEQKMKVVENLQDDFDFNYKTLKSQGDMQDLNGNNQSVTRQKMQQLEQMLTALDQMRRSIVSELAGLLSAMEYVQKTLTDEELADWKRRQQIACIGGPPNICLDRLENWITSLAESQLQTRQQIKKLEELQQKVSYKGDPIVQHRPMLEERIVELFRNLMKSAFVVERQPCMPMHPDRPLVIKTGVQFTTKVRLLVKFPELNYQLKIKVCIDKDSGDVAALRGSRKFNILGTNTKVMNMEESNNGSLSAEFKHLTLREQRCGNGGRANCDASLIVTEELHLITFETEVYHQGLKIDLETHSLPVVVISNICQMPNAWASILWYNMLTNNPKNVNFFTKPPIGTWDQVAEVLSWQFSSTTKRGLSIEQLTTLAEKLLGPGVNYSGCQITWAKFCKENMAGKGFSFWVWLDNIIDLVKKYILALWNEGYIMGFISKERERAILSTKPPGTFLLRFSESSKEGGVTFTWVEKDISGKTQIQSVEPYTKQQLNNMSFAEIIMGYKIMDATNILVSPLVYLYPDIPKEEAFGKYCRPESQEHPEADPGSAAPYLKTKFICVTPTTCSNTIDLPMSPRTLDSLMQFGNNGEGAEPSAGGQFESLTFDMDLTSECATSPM

One may read the melting point as the temperature, or range, at which the solid turns liquid. Consider `O=C(c1ccc(Oc2ccccc2)cc1)N(Cc1ccc(C2CCCCC2)cc1)c1ccc(P(=O)(O)O)cc1` [Compound 17a, 4-(N-(4-Cyclohexylbenzyl)-4-phenoxybenzamido)phenylphosphonic acid], for which the melting point is 182.7 °C (dec.). For the compound `O=C(c1ccc(Oc2ccccc2)cc1)N(Cc1ccc(C2CCCCC2)cc1)c1ccc(CP(=O)(O)O)cc1` [Compound 17c, 4-(N-(4-Cyclohexylbenzyl)-4-phenoxybenzamido)benzylphosphonic acid], the melting point was 188 °C (dec.). In the case of `O=C(c1ccc(Oc2ccccc2)cc1)N(Cc1ccc(C2CCCCC2)cc1)c1cccc(CP(=O)(O)O)c1` [Compound 17d, 3-(N-(4-Cyclohexylbenzyl)-4-phenoxybenzamido)benzylphosphonic acid], the melting point is 97 °C (dec.). On the same count and under the same terms, under `O=C(Nc1ccc(CP(=O)(O)O)cc1)c1ccc(Oc2ccccc2)cc1` [Compound 18c, 4-(4-Phenoxybenzamido)benzylphosphonic acid] stands over 250 °C. Turning to `COc1ccc(CN(C(=O)c2ccc(Oc3ccccc3)cc2)c2ccc(O)c(C(=O)O)c2)cc1` [Compound 20b, 2-Hydroxy-5-(N-(4-methoxybenzyl)-4-phenoxybenzamido)benzoic acid], the “binding of FLAG-STAT3 to HA-STAT3 (co-immunoprecipitation)” value in data set [1] is “did not inhibit this binding with concentrations as high as 200 μM”. Moreover, the P-STAT3 nuclear accumulation entry in data set [2] is recorded as “little effect with concentrations as high as 200 μM”. Further, in data set [3], the “activated STAT3 in nuclear extracts capable of binding the STAT3 DNA binding probe” value was “did not decrease the amount of STAT3 capable of binding DNA”. For `Cc1ccc(S(=O)(=O)OCC(=O)Nc2ccc(C(=O)O)c(O)c2)cc1` [Compound S3I-201], the “antitumor effects in xenografts” value in data set [4] was “exert antitumor effects against human breast and liver cancer xenografts in mouse models”.

As for “Ac-G{pTYR}LPQTV-AAVLLPVLLAAP-NH2 (Ac-G[pY]LPQTVAAVLLPVLLAAP-NH2; SMILES CC(=O)NCC(=O)N[C@@H](Cc1ccc(OP(=O)(O)O)cc1)C(=O)N[C@@H](CC(C)C)C(=O)N1CCC[C@H]1C(=O)N[C@@H](CCC(N)=O)C(=O)N[C@H](C(=O)N[C@H](C(=O)N[C@@H](C)C(=O)N[C@@H](C)C(=O)N[C@H](C(=O)N[C@@H](CC(C)C)C(=O)N[C@@H](CC(C)C)C(=O)N1CCC[C@H]1C(=O)N[C@H](C(=O)N[C@@H](CC(C)C)C(=O)N[C@@H](CC(C)C)C(=O)N[C@@H](C)C(=O)N[C@@H](C)C(=O)N1CCC[C@H]1C(N)=O)C(C)C)C(C)C)C(C)C)[C@@H](C)O) [P-Pep, reference compound]”, in data set [1], the “binding of FLAG-STAT3 to HA-STAT3 (co-immunoprecipitation)” value was “inhibited FLAG-STAT3 from co-immunoprecipitating with HA-STAT3”.

(Values after US10954258B2, “STAT3 dimerization inhibitors” (H. LEE MOFFITT CANCER CENTER AND RESEARCH INSTITUTE, INC., priority 2012, dated 2021).)
